Assay results published in US20260240179A1, “EDIBLE COMPOSITIONS AND METHODS FOR THE PRESERVATION OF FRUITS AND VEGETABLES” (ONYX LOTUS, LLC, priority 2023, published 2026).
Values joined by “and” are separate entries in the source; they are usually repeats but may differ in a detail not shown here. Identical values can stand only once.

Assays:
[1] = test system: blueberries; assay: Weight of dipped blueberries over time (moisture retention and freshness)
[2] = test system: Java plums; assay: Weight of dipped Java plums over time (moisture retention and freshness)
Description: Starting with two sets of java plums, each set containing eight plums, a control set is dipped in 95% ethanol and placed at room temperature and 50% Relative humidity. A second set, the treatment set, is dipped in a zein composition consisting of 100 mL 95% Ethanol+6 g zein powder. […] were weighed on days 1, 2, 3, 4, 6, 7. Weights were taken to approximate moisture retention and freshness. After 7 days, average weight loss of control (no zein applied) Java plums was 28.5% compared to 23.6% weight loss for zein treatment. Java plums treated with zein retained 17.2% more moisture compared to untreated plums.

[3] = single fruit samples, zein dip (6 g in 100 mL 95% ethanol), 23-25° C., Day 1

zein
average weight loss ([1]; blueberries, after nine days, dipped in 100 mL 95% ethanol+6 g zein powder, control 43.1%): 37.2% | more moisture retained compared to untreated berries ([1]; blueberries, after nine days, zein dip): 13.7% | Weight of blueberries, Day 1 [1, 3]: 1.6 grams and 1.79 grams and 1.62 grams and 1.71 grams and 1.7 grams | Weight of blueberries, Day 2 ([1]; zein dip, 23-25° C., Day 2): 1.52 grams and 1.7 grams and 1.53 grams and 1.63 grams | Weight of blueberries, Day 3 ([1]; zein dip, 23-25° C., Day 3): 1.44 grams and 1.6 grams and 1.54 grams and 1.55 grams | Weight of blueberries, Day 5 ([1]; zein dip, 23-25° C., Day 5): 1.3 grams and 1.65 grams and 1.99 grams and 1.63 grams | Weight of blueberries, Day 6 ([1]; zein dip, 23-25° C., Day 6): 1.23 grams and 1.22 grams and 1.37 grams and 1.32 grams and 1.36 grams | Weight of blueberries, Day 7 ([1]; zein dip, 23-25° C., Day 7): 1.16 grams and 1.31 grams and 1.26 grams and 1.3 grams | Weight of blueberries, Day 8 ([1]; zein dip, 23-25° C., Day 8): 1.09 grams and 1.1 grams and 1.26 grams and 1.19 grams | Weight of blueberries, Day 11 ([1]; zein dip, 23-25° C., Day 11): 1.06 grams and 1.2 grams and 1.15 grams and 1.19 grams | Weight of blueberries, Day 12 ([1]; zein dip, 23-25° C., Day 12): 0.97 grams and 0.98 grams and 1.12 grams and 1.08 grams and 1.13 grams | Weight of blueberries, Day 13 ([1]; zein dip, 23-25° C., Day 13): 0.85 grams and 0.86 grams and 1.01 grams and 0.97 grams | Weight of blueberries, Day 14 ([1]; zein dip, 23-25° C., Day 14): 0.82 grams and 0.832 grams and 0.98 grams and 0.94 grams | average weight loss ([2]; Java plums, after 7 days, dipped in 100 mL 95% ethanol+6 g zein powder, control 28.5%): 23.6% | more moisture retained compared to untreated plums ([2]; Java plums, after 7 days, zein dip): 17.2% | Weight of Java plums, Day 1 [2, 3]: 15.82 grams and 15.19 grams and 11.63 grams and 11.83 grams and 16.16 grams and 14.65 grams and 14.35 grams and 12.88 grams | Weight of Java plums, Day 2 ([2]; zein dip, 23-25° C., Day 2): 15.03 grams and 14.42 grams and 10.79 grams and 11.19 grams and 13.65 grams and 13.13 grams and 13.63 grams and 12.24 grams | Weight of Java plums, Day 3 ([2]; zein dip, 23-25° C., Day 3): 14.46 grams and 13.88 grams and 10.33 grams and 10.72 grams and 12.96 grams and 19.13 grams and 11.78 grams | Weight of Java plums, Day 4 ([2]; zein dip, 23-25° C., Day 4): 13.72 grams and 13.16 grams and 9.72 grams and 9.12 grams and 12.36 grams and 12.67 grams and 11.18 grams | Weight of Java plums, Day 6 ([2]; zein dip, 23-25° C., Day 6): 12.53 grams and 12.02 grams and 8.73 grams and 11.33 grams and 11.39 grams and 10.2 grams | Weight of Java plums, Day 7 ([2]; zein dip, 23-25° C., Day 7): 12.15 grams and 11.66 grams and 8.4 grams and 11 grams and 11.03 grams and 9.87 grams
